{"source": "patent US20150224164A1", "about": "“TREATMENT OF AUTISM SPECTRUM DISORDERS USING GLYCYL-L-2-METHYLPROLYL-L-GLUMATIC ACID” (Neuren Pharmaceuticals Limited, priority 2013, published 2015)", "key": {"[1]": {"test_system": "MeCP2 knock-out mice", "settings": "MeCP2 knock-out model; cited from earlier work"}, "[2]": {"test": "Pharmacokinetics after intravenous bolus injection", "format": "in vivo, rat", "experimental": "Adult male Wistar rats weighing between 180 and 240 g were used to determine the pharmacokinetics of GPE and G2MePE. To facilitate intravenous bolus injections and blood sampling, all rats were surgically implanted with an indwelling jugular venous cannula under halothane anesthesia three days before the experiment. Groups of six rats were given a single intravenous bolus injection of either 30 mg/kg GPE or 10 mg/kg G2MePE dissolved in 0.1M succinate buffer (pH 6.5). Blood samples (about 220 μl each) were collected into heparinized tubes containing Sigma protease inhibitor cocktail for mammalian tissues at 10 and 0 min before injection of either GPE or G2MePE, and 1, 2, 4, 8, 16, 32, 64 and 128 min after injection of either GPE or G2MePE. The samples were centrifuged at 3000 g for 15 min at 4° C. and the plasma removed and stored at −80° C. until extraction and assay by either radioimmunoassay (“RIA”) or reverse phase HPLC. The RIA and HPLC methods used were conventional.\nThe k and half-life (t1/2) were calculated from the slope of the linear regression line in the elimination phase of the semi-logarithmic plot of plasma concentration versus time as: Log C=−kt/2.3+log C0. Results were expressed as mean±standard error."}, "[3]": {"test_system": "cortical neurons injured with okadaic acid", "test": "In vitro neuroprotection, cortical cultures injured with okadaic acid (MTT)", "format": "cell-based, rat", "settings": "10 μM; okadaic acid injury; 24 hours incubation; MTT-assay", "experimental": "A dam was sacrificed by CO2-treatment, and then was prepared for caesarean section. After surgery, the embryos were removed from their amniotic sacs and decapitated. The heads were placed on ice in DMEM/F12 medium for striatum and PBS+0.65% D(+)-glucose for cortex.\nThe two cortical hemispheres were carefully removed by spatula from the whole brain with the ventral side facing upside into a PBS+0.65% D(+)-glucose containing petri dish. Forceps were put into the rostral part (near B. olfactorius) of the cortex in order to fix the tissue and two lateral-sagittal oriented cuts were made to remove the […] and entorhinal cortices. […]\nThe cells were triturated once with a glass Pasteur pipette in 1 ml of Neurobasal/B27 medium and subsequently twice by using a 1 ml insulin syringe with a 22 gauge needle. […] Cells were counted and adjusted to 50,000 cells per 60 μl. […]\nTo cause toxic injury to neurons, we exposed neurons to 1:100 parts of okadaic acid at concentrations of 30 nM or 100 nM and 0.5 mM 3-nitropropionic acid (for cerebellar microexplants only). […] The survival rate was determined by a colorimetric end-point MTT-assay at 595 nm in a multi-well plate reader. For the cerebellar microexplants four windows (field of 0.65 mm^2) with highest cell density were chosen and cells displaying neurite outgrowth were counted."}}, "data": [{"smiles": "NCC(=O)N1CCC[C@H]1C(=O)N[C@@H](CCC(=O)O)C(=O)O", "note": "[GPE, glycyl-L-prolyl-L-glutamic acid, reference compound]", "values": [{"measurement": "life span and neuronal function", "setting": "[1]", "result": "prolong life and increase neuronal function"}, {"measurement": "degradation", "setting": "[2]; in vivo and in vitro", "result": "rapidly degraded"}, {"measurement": "first order rate constant", "setting": "[2]; single i.v. bolus, GPE 30 mg/kg, G-2-MePE 10 mg/kg", "result": "0.15 ± 0.014", "unit": "min⁻¹"}, {"measurement": "peak plasma concentration", "setting": "[2]; single i.v. bolus, GPE 30 mg/kg, G-2-MePE 10 mg/kg, mean±standard error", "result": "40 ± 10.8", "unit": "µg/mL"}, {"measurement": "neuroprotection", "setting": "[3]", "result": 64, "unit": "%"}]}]}
